From US11174286B2, “Inhibitors of NF κ-B activity for treatment of diseases and disorders” (priority 2014, dated 2021) come the findings set out here.

One assay deals with human dermal fibroblasts. The assay can be described thus: Gene microarray analysis of gene expression. It counts as cell-based. The settings on record: 1.0 micromolar peptide. An excerpt: (§1) NF κB inhibitor peptide SEQ ID NO: 010 down-regulates expression of genes known to be associated with the pathobiological action of NF κB and TNF α. […] The upregulation of certain target genes by the transcription factor NF κB is a major contributory factor in diseases and disorders attributed to the activation of NF κB. The downregulation of these genes by the NF κB inhibitor peptides can be expected to provide prophylaxis and therapy for such disorders. (The downregulation of some of these genes was confirmed in vivo in a study to examine the efficacy of NF κB inhibitor peptide, SEQ ID NO: 010.) Certain genes were also tested in a rodent squamous cell carcinoma model, by PCR and by immunoblots (mRNA levels were monitored by PCR and the corresponding protein levels were monitored by immunoblots).

A short description of assay [1]: In vivo study confirming gene downregulation.
Excerpt: as §1

Assay [2] concerns chemically induced tumor in hamster cheek. The assay can be described thus: DMBA-induced oral tumor in hamster buccal pouch, topical peptide gel. It counts as in vivo, Syrian hamsters. Particulars: hamster cheek, FIG. 6C. The protocol:
A peptide inhibitor of NF κB activity disclosed herein was tested for treatment of induced oral tumors. Male Syrian hamsters aged 8 to 10 weeks weighing between 100 and 110 g were used. The animals were fed a standard pellet diet and water ad libitum, and were maintained in accordance with applicable ethical and institutional guidelines. The animals were randomized into 10 groups of 8 animals each, and the right buccal pouches of hamsters in groups 1-5 were painted with 0.5% 7,12-dimethylbenz[a]anthracene (DMBA) in liquid paraffin three times a week for 12 weeks.
Mucoadhesive gels containing peptides were prepared by slowly adding Noveon AA1 (0.675% w/w) and Carbopol 971P NF (0.788% w/w) to purified water. The mixture was stirred at 1,025 rpm for one hour to allow full rehydration. Then 0.9% w/w glycerine, 2-phenoxyethanol, benzyl alcohol, and EDTA were added, followed by mixing at 875 rpm for one hour at room temperature. Finally, the desired peptide was added to the gel, and the gel mixed at 875 rpm for one hour to homogenize the gel (Kavitha et al., Biochimie 102:56-67 (2014); Mallery et al., Pharm Res. 24(4):728-737 (2007)).
Hamsters in Group 1 received no further treatment. For hamsters in Groups 2 and 3, peptide gel was applied topically to the right buccal pouches of the hamsters from the 12th to the 18th week daily at concentrations of 10 microgram/ml (2.35 microgram dosage of peptide per application) and 100 microgram/ml (23.5 microgram dosage of peptide per application) respectively. Another group of animals painted with liquid paraffin alone served as control. The experiment was terminated after 18 weeks and all animals were sacrificed by cervical dislocation after an overnight fast.

Turning to NVAENA [SEQ ID NO:010], in the assay on human dermal fibroblasts, the “expression of genes associated with the pathobiological action of NF κB and TNF α” value is on record as “down-regulates”. Besides, the “downregulation of some of these genes in vivo” value in assay [1] was “confirmed”. Further, the “histology of DMBA-treated tissue after peptide treatment” value in assay [2] is given as “histology is closer to normal histology after treatment”.
